# Data published in paper PMC10823468, “Design, Synthesis, and Evaluation of New 1H-Benzo[d]imidazole Based PqsR Inhibitors as Adjuvant Therapy for Pseudomonas aeruginosa Infections” (Journal of Medicinal Chemistry, 2024).
# Read-outs that look alike come from different tables or passages of the source.
# Key:
# [1] = test system: PqsR (PqsR-controlled pqsA promoter, PAO1-L mCTX::PpqsA-lux); assay: Bioluminescent reporter assay, PAO1-L mCTX::PpqsA-lux; type: cell-based, Pseudomonas aeruginosa; details: for pqs inhibitory activity in the PA bioluminescent reporter assay, in words: reporter strains; for IC50: Pseudomonas aeruginosa; for reduction in potency compared with 6f: PAO1-L; for activity relative to 6f / to each other, in words: PAO1-L reporter (6i, 6j, 6s: both reporter strains)
# Experimental: (§1) An extensive SAR was performed on 6a to investigate the role of substitutions around various positions of the benzimidazole ring (groups R1–R3) as well as the aromatic tail (groups R4–R5) to fine-tune the potency of this series (6a–u) (Table 2). The activity of these analogues to inhibit the pqs QS system was evaluated in the PAO1-L and PA14 strains (that belong to the two major P. aeruginosa genomic lineages), both harboring a chromosomally integrated mCTX::PpqsA-lux transcriptional fusion to report for the activity of pqs system. Successful pharmacological blocking of AQ signal reception at the level of PqsR leads to a reduced transcription of the pqsA-lux genes and ultimately reduction in the luminescence readout.
# (§2) Strains PA14 mCTX::PpqsA-lux and PAO1-L mCTX::PpqsA-lux were used to detect PqsR-controlled activation of the pqsA promoter, as previously described,[45] and the assay was performed according to a published method.[46] For initial screening, the compounds were tested at a concentration of 10 μM, which was prepared from a 10 mM stock, in DMSO.
# [2] = test system: PqsR (PqsR-controlled pqsA promoter, PAO1-L mCTX::PpqsA-lux); parameters: method as in PMID 34503335; details: previously reported inhibitor; read-out: IC50 in P. aeruginosa PAO1-L; cited from earlier work
# [3] = test system: PqsR (PqsR-controlled pqsA promoter, PA14 mCTX::PpqsA-lux); assay: Bioluminescent reporter assay, PA14 mCTX::PpqsA-lux; type: cell-based; details: Pseudomonas aeruginosa
# Experimental: as §1, §2
# [4] = test system: pyocyanin production in P. aeruginosa; assay: Pyocyanin quantification; type: cell-based, Pseudomonas aeruginosa; details: PAO1-L; concentration three times the IC50; relative to DMSO
# Experimental: This assay was extended further to investigate the effect of 6f on pyocyanin production in different P. aeruginosa at 6f concentration of 200 nM (Figure 5b).
# The experiment was performed following a published protocol with minor modifications. Strains were cultured into 5 mL of fresh medium overnight. […] Cells were centrifuged at 10 000 RCF for 10 min (Allegra 64R centrifuge, Beckman Coulter, High Wycombe, UK), and the supernatant was transferred to 15 mL falcon tubes with a HSW 10 mL Soft-Ject Syringe and a […] Sartorius syringe-driven filter (Fisher Brand, Loughborough, UK). Pyocyanin pigment was extracted into chloroform by mixing 7.5 mL of supernatant with 4.5 mL of chloroform. Pyocyanin was further extracted into 1.5 mL of 0.2 M HCL, which gave a pink/red solution, and the absorbance was measured at 520 nm.[47]
# [5] = test system: A549 human lung epithelial carcinoma cell line; assay: A549 cytotoxicity assay (resazurin / alamar blue); type: cell-based; details: at concentrations up to 100 μM (1, 50, 100 μM), 24 h
# Experimental: Establishing the safety profile of new chemical entities is paramount for further drug development. […] The assay employed resazurin reduction, a sensitive fluorometric assay widely used as a standard methodology in drug discovery research.[35] This assay relies on the ability of living cells to reduce resazurin to the fluorescent compound, resorufin, which indicates the rate of the metabolic activity as a means to quantify cell viability.
# Cell viability was assessed according to Nimesh et al.[51] on A549 adenocarcinomic human alveolar basal epithelial cell line. The viability of the A549 cell line was assessed after overnight incubation with three concentrations (1, 50, and 100 μM) of the corresponding compound using alamar blue (resazurin) dye. Cells were maintained in the Dulbecco’s Modified Essential Medium (DMEM) supplemented with 10% fetal bovine serum (FBS) and 1% penicillin–streptomycin–neomycin (PSN). After that, 100 μL of suspended cells with a final concentration (1 × 10^4 cells/wall) were seeded in 96-well plates with 100 μL of (1, 50, 100 μM) concentrations of the tested compound was dispensed in sextuplicate. […] The plates were further incubated for 4–6 h and the intensity of the fluorescence was measured using an excitation light of 510 nm and measuring the fluorescence output at 590 nm. The cell viability in each well was normalized to the DMSO reading.
# [6] = PA14, read-out: IC50 (μM) PA14 mCTX::PpqsA-lux
# [7] = PAO1, read-out: IC50 (μM) PAO1-L mCTX::PpqsA-lux
Compound,"IC50 [3, 6] [µM]","IC50 [1, 7] [µM]",further results
"2-(4-(3-((5,6-Dichloro-1-methyl-1H-benzo[d]imidazol-2-yl) amino)-2-hydroxypropoxy) phenyl) Acetonitrile [Compound 6c]",–,–,"pqs inhibitory activity in the PA bioluminescent reporter assay, in words [1]: abolished the activity"
2-(4-(3-((5-Chloro-1-methyl-1H-benzo[d]imidazol-2-yl)amino)-2-hydroxypropoxy)phenyl) Acetonitrile [Compound 6b],–,–,"pqs inhibitory activity in the PA bioluminescent reporter assay, in words [1]: abolished the activity"
N#CCc1ccc(OCC(O)Cn2cnc3ccc(Cl)cc3c2=O)cc1 (stereo not shown) [Compound 1],–,–,IC50 [2]: 3200 nM
"Cn1c(NCC(O)COc2ccc(CC#N)cc2)nc2ccc(Cl)cc21 (stereo not shown) [Compound 6a, 2-(4-(3-((6-Chloro-1-methyl-1H-benzo[d]imidazol-2-yl)amino)-2-hydroxypropoxy)phenyl) Acetonitrile]",–,–,"IC50 ([3]; PA14, read-out: IC50 (μM) PA14 PpqsA-lux): 0.2 ± 0.02 µM; enhancement of activity compared to 1 ([1]; PAO1-L laboratory strain): 15 fold; IC50 ([1]; PAO1, read-out: IC50 (μM) PAO1-L PpqsA-lux): 0.21 ± 0.04 µM"
"CC(C)(C)n1c(NCC(O)COc2ccc(CC#N)cc2)nc2ccc(Cl)cc21 (stereo not shown) [Compound 6g, 2-(4-(3-((1-(tert-Butyl)-6-chloro-1H-benzo[d]imidazol-2-yl)amino)-2-hydroxypropoxy)phenyl) Acetonitrile]",0.23 ± 0.01,0.22 ± 0.01,inhibition of pyocyanin production [4]: ~80%
"CC(C)(C)Cn1c(NCC(O)COc2ccc(CC#N)cc2)nc2ccc(Cl)cc21 (stereo not shown) [Compound 6h, 2-(4-(3-((6-Chloro-1-neopentyl-1H-benzo[d]imidazol-2-yl)amino)-2-hydroxypropoxy)phenyl) Acetonitrile]",0.25,0.38,reduction in potency compared with 6f [1]: ~6 fold
"N#CCc1ccc(OCC(O)CNc2nc3ccc(Cl)cc3n2C2CC2)cc1 (stereo not shown) [Compound 6i, 2-(4-(3-((6-Chloro-1-cyclopropyl-1H-benzo[d]imidazol-2-yl)amino)-2-hydroxypropoxy)phenyl) Acetonitrile]",0.09 ± 0.02,0.07 ± 0.03,"activity relative to 6f / to each other, in words [1]: comparable potencies to 6f"
"N#CCc1ccc(OCC(O)CNc2nc3ccc(Cl)cc3n2C2CCC2)cc1 (stereo not shown) [Compound 6j, 2-(4-(3-((6-Chloro-1-cyclobutyl-1H-benzo[d]imidazol-2-yl)amino)-2-hydroxypropoxy)phenyl) Acetonitrile]",0.31 ± 0.05,0.16 ± 0.01,"activity relative to 6f / to each other, in words [1]: comparable potencies to 6f"
"N#CCc1ccc(OCC(O)CNc2nc3ccc(Cl)cc3n2C2CCCC2)cc1 (stereo not shown) [Compound 6k, 2-(4-(3-((6-Chloro-1-cyclopentyl-1H-benzo[d]imidazol-2-yl)amino)-2-hydroxypropoxy)phenyl) Acetonitrile]",0.47 ± 0.1,0.44 ± 0.1,reduction in potency compared with 6f [1]: ~6 fold
"N#CCc1ccc(OCC(O)CNc2nc3ccc(Cl)cc3n2C2CCCCC2)cc1 (stereo not shown) [Compound 6l, 2-(4-(3-((6-Chloro-1-cyclohexyl-1H-benzo[d]imidazol-2-yl)amino)-2-hydroxypropoxy)phenyl) Acetonitrile]",1.4 ± 0.1,1.7 ± 0.5,reduction in potency compared with 6f [1]: 25 fold
"N#CCc1ccc(OCC(O)CNc2nc3ccc(Cl)cc3n2CCOCc2ccccc2)cc1 (stereo not shown) [Compound 6m, 2-(4-(3-((1-(2-(Benzyloxy)ethyl)-6-chloro-1H-benzo[d]imidazol-2-yl)amino)-2-hydroxypropoxy)phenyl) Acetonitrile]",–,1.06,reduction in potency compared with 6f [1]: 14 fold
"CC(C)n1c(NCC(O)COc2ccc(CC#N)cc2F)nc2ccc(Cl)cc21 (stereo not shown) [Compound 6n, 2-(4-(3-((6-Chloro-1-isopropyl-1H-benzo[d]imidazol-2-yl)amino)-2-hydroxypropoxy)-3-fluorophenyl) Acetonitrile]",0.11 ± 0.01,0.05 ± 0.02,cytotoxicity for A549 cells [5]: not cytotoxic
"CC(C)n1c(NCC(O)COc2ccc(CC#N)c(F)c2)nc2ccc(Cl)cc21 (stereo not shown) [Compound 6o, 2-(4-(3-((6-Chloro-1-isopropyl-1H-benzo[d]imidazol-2-yl)amino)-2-hydroxypropoxy)-2-fluorophenyl) Acetonitrile]",0.09 ± 0.01,0.06 ± 0.03,–
"CC(C)n1c(NCC(O)COc2ccc(CC#N)cc2)nc2ccccc21 (stereo not shown) [Compound 6p, 2-(4-(2-Hydroxy-3-((1-isopropyl-1H-benzo[d]imidazol-2-yl)amino)propoxy)phenyl) Acetonitrile]",1.03,0.77,–
"CN(C)CCn1c(NCC(O)COc2ccc(CC#N)cc2)nc2ccc(Cl)cc21 (stereo not shown) [Compound 6q, 2-(4-(3-((6-Chloro-1-(2-(dimethylamino)ethyl)-1H-benzo[d]imidazol-2-yl)amino)-2-hydroxypropoxy)phenyl) Acetonitrile]",–,–,"pqs inhibitory activity in the PA bioluminescent reporter assay, in words [1]: obliterated the biological activity"
"CN1CCC(n2c(NCC(O)COc3ccc(CC#N)cc3)nc3ccc(Cl)cc32)CC1 (stereo not shown) [Compound 6r, 2-(4-(3-((6-Chloro-1-(1-methylpiperidin-4-yl)-1H-benzo[d]imidazol-2-yl)amino)-2-hydroxypropoxy)phenyl) Acetonitrile]",–,–,"pqs inhibitory activity in the PA bioluminescent reporter assay, in words [1]: not active"
"N#CCc1ccc(OCC(O)CNc2nc3ccc(Cl)cc3n2C2COC2)cc1 (stereo not shown) [Compound 6s, 2-(4-(3-((6-Chloro-1-(oxetan-3-yl)-1H-benzo[d]imidazol-2-yl)amino)-2-hydroxypropoxy)phenyl) Acetonitrile]",0.21 ± 0.03,0.24 ± 0.02,"activity relative to 6f / to each other, in words [1]: comparable potencies to 6f"
"COCCn1c(NCC(O)COc2ccc(CC#N)cc2)nc2ccc(Cl)cc21 (stereo not shown) [Compound 6t, 2-(4-(3-((6-Chloro-1-(2-methoxyethyl)-1H-benzo[d]imidazol-2-yl)amino)-2-hydroxypropoxy)phenyl) Acetonitrile]",0.2 ± 0.05,0.18 ± 0.04,reduction in potency compared with 6f [1]: 2 fold
"N#CCc1ccc(OCC(O)CNc2nc3ccc(Cl)cc3n2CCO)cc1 (stereo not shown) [Compound 6u, 2-(4-(3-((6-Chloro-1-(2-hydroxyethyl)-1H-benzo[d]imidazol-2-yl)amino)-2-hydroxypropoxy)phenyl) Acetonitrile]",0.1 ± 0.02,0.18 ± 0.05,reduction in potency compared with 6f [1]: 2 fold
CC(C)n1c(NC[C@H](O)COc2ccc(CC#N)cc2)nc2ccc(Cl)cc21 [Compound 6v],–,–,"activity relative to 6f / to each other, in words [1]: comparable activity to the racemic compound 6f"
CC(C)n1c(NC[C@@H](O)COc2ccc(CC#N)cc2)nc2ccc(Cl)cc21 [Compound 6w],–,–,"activity relative to 6f / to each other, in words [1]: comparable activity to the racemic compound 6f"
N#CCc1ccc(OCC(O)CNc2nc3ccc(Cl)cc3o2)cc1 (stereo not shown) [Compound 7],–,–,"pqs inhibitory activity in the PA bioluminescent reporter assay, in words [1]: abolished pqs inhibitory activity"
N#CCc1ccc(OCC(O)CNc2nc3ccc(Cl)cc3s2)cc1 (stereo not shown) [Compound 8],–,–,"pqs inhibitory activity in the PA bioluminescent reporter assay, in words [1]: abolished pqs inhibitory activity"
Cn1c(SCC(O)COc2ccc(CC#N)cc2)nc2ccc(Cl)cc21 (stereo not shown) [Compound 11],–,–,"pqs inhibitory activity in the PA bioluminescent reporter assay, in words [1]: abolished pqs inhibitory activity"
